Values quoted from earlier work, collected in publication PMC9344054, “Studies on Chemical Characterization of Ginkgo Amillaria Oral Solution and Its Drug–Drug Interaction With Piceatannol 3′-O-β-D-Glucopyranoside for Injection” (Frontiers in Pharmacology, 2022).

Experiments:
[1] = tested on: most human UGTs, including UGT1A1, 1A3, 1A4, 1A6, 1A7, 1A8, and 1A9; set-up: method as in Lv et al., 2018; details: UGT1A1, 1A3, 1A4, 1A6, 1A7, 1A8, 1A9; ref Lv et al., 2018; cited from earlier work
P-glycoprotein = tested on: P-glycoprotein; set-up: method as in An et al., 2011; Palatini and De Martin, 2016; details: previous studies; ref An et al., 2011; Palatini and De Martin, 2016; cited from earlier work
[2] = tested on: breast cancer resistance protein; set-up: method as in An et al., 2011; Palatini and De Martin, 2016; details: ref An et al., 2011; Palatini and De Martin, 2016; cited from earlier work
human hepatic UGT1A4 = tested on: human hepatic UGT1A4; set-up: method as in Cao et al., 2017; details: in vitro; ref Cao et al., 2017; cited from earlier work
human hepatic UGT1A1 = tested on: human hepatic UGT1A1; set-up: method as in Cao et al., 2017; details: in vitro; ref Cao et al., 2017; cited from earlier work
[3] = set-up: method as in Zhao et al., 2006; details: pretreatment of GBE 100 mg kg−1 for 10 days; ref Zhao et al., 2006; cited from earlier work
UGT1A3 = tested on: UGT1A3; set-up: method as in Zhang et al., 2021; details: ref Zhang et al., 2021; cited from earlier work
UGT1A1 = tested on: UGT1A1; set-up: method as in Zhang et al., 2021; details: ref Zhang et al., 2021; cited from earlier work
UGT1A6 = tested on: UGT1A6; set-up: method as in Zhang et al., 2021; details: ref Zhang et al., 2021; cited from earlier work
UGT1A9 = tested on: UGT1A9; set-up: method as in Zhang et al., 2021; details: ref Zhang et al., 2021; cited from earlier work
[4] = set-up: method as in Fan et al., 2009; details: ten healthy male volunteers, ref Fan et al., 2009, cited from earlier work

Question: Which “inhibition toward most human UGTs” value [1] does the source give for `O=c1cc(-c2ccc(O)c(-c3c(O)cc(O)c4c(=O)cc(-c5ccc(O)cc5)oc34)c2)oc2cc(O)cc(O)c12` [amentoflavone] here?
Answer: The value was “strong inhibition”.

Question: Which “inhibition of the P-glycoprotein-mediated efflux of ritonavir” value (P-glycoprotein) does the source give for `O=c1c(O)c(-c2ccc(O)cc2)oc2cc(O)cc(O)c12` [kaempferol] here?
Answer: The value was “remarkable inhibition”.

Question: And the “inhibition of breast cancer resistance protein” value [2]?
Answer: Its value is “inhibitor”.

Question: For `O=c1cc(-c2ccc(O)c(O)c2)oc2cc(O)cc(O)c12` [luteolin], which “inhibition of human hepatic UGT1A4” value (human hepatic UGT1A4) is on record?
Answer: Its value is “inhibited”.

Question: And the “inhibition of human hepatic UGT1A1” value (human hepatic UGT1A1)?
Answer: The value was “inhibited”.

Question: With `CC(C)NCC(O)COc1cccc2ccccc12` (stereo not shown) [propranolol] as the molecule, how does the “change of AUC of propranolol” value [3] read?
Answer: Its value is “significantly reduce”.

Question: And the “change of C max of propranolol” value [3]?
Answer: The value was “significantly reduce”.

Question: With `O=c1c(O)c(-c2ccc(O)c(O)c2)oc2cc(O)cc(O)c12` [quercetin] as the molecule, how does the “inhibition of human hepatic UGT1A4” value (human hepatic UGT1A4) read?
Answer: Its value is “inhibited”.

Question: And the “inhibition of UGT1A3” value (UGT1A3)?
Answer: Its value is “moderate inhibitor”.

Question: What about the “inhibition of UGT1A1” value (UGT1A1) of the same molecule?
Answer: The value was “moderate inhibitor”.

Question: And the “inhibition of UGT1A6” value (UGT1A6)?
Answer: The value was “weak inhibitor”.

Question: And the “inhibition of human hepatic UGT1A1” value (human hepatic UGT1A1)?
Answer: The value was “inhibited”.

Question: And the “inhibition of UGT1A9” value (UGT1A9)?
Answer: The value was “strong inhibitor”.

Question: Which “increase of AUC0-24 of talinolol” value ([4]; repeated ingestion of GBE) does the source give for `CC(C)(C)NCC(O)COc1ccc(NC(=O)NC2CCCCC2)cc1` (stereo not shown) [talinolol] here?
Answer: The value was 26%.

Question: What about the “increase of C max of talinolol” value ([4]; repeated ingestion of GBE) of the same molecule?
Answer: The value was 36%.

Question: What about the “effect on pharmacokinetics of talinolol” value ([4]; single dose of GBE orally) of the same molecule?
Answer: The value was “did not affect”.
